Results from patent publication US11344510B2, “Arylcyclohexylamine derivatives and their use in the treatment of psychiatric disorders” (Gilgamesh Pharmaceuticals, Inc., priority 2019, dated 2022).
Entries after “also recorded” stand apart in the source; their conditions may differ. Structures can show the parent of a compound that is named as a salt.

What was measured:
[1] = HLM stability (Low Activity); format: in vitro ADME; conditions: both sexes, human, liver microsomes, pH 7.4, Condition 1 (Low Activity), 0.42 mg protein/mL
Procedure: For some of the compounds, stability was tested under two microsomal incubation conditions, one with normal enzymatic activity (low activity) and one with higher enzymatic loading, longer incubation time, and lower compound concentration (high activity) intended to increase metabolic lability.
HLM Stability (Low Activity). Pooled HLM from adult male and female donors (XenoTech H0630) were used. Microsomal incubations were carried out in 96-well plates in 5 aliquots of 40 μL, each (one for each time point). Liver microsomal incubation medium consisted of PBS (100 mM, pH 7.4), MgCl2 (3.3 mM), NADPH (3 mM), glucose-6-phosphate (5.3 mM), and glucose-6-phosphate dehydrogenase (0.67 units/mL), with 0.42 mg of liver microsomal protein per mL. Control incubations were performed by replacing the NADPH-cofactor system with PBS. Test compounds (2 μM, final solvent concentration 1.6%) were incubated with microsomes at 37° C., shaking at 100 rpm. Incubations were performed in duplicate. Five time points over 40 minutes were analyzed. The reactions were stopped by adding 12 volumes of 90% acetonitrile-water to incubation aliquots, followed by protein sedimentation by centrifugation at 5500 rpm for 3 minutes. Supernatants were analyzed for parent compound remaining using a fit-for-purpose liquid chromatography-tandem mass spectrometry (LC-MS/MS) method, with authentic samples of each analyte used for identity confirmation.
Data Analysis. The elimination constant (kel), half-life (t1/2) and intrinsic clearance (Clint) were determined in a plot of […] versus time, using linear regression analysis.

mice (forced swim test) = test: Forced swim test in mice, 30-minute pre-treatment; format: in vivo, Swiss Webster mice; conditions: s.c., 30 minutes before test, relative to vehicle
Procedure: Animals. Male Swiss Webster mice, aged 4-5 weeks (body weight 25-30 g, Envigo) were used in the experiments Animals were housed in groups of 4-5 under controlled temperatures and 12-hour light/dark cycles, with ad libitum food (Teklad 7001 rodent diet) and water. These studies were carried out in strict accordance with the recommendations in the Guide for the Care and Use of Laboratory Animals of the National Institutes of Health. All efforts were made to minimize suffering.
Drugs and Drug Administration. Imipramine hydrochloride was administered intraperitoneally (i.p.) at a dose of 30 mg/kg. Other compounds were tested as the racemates (indicated by “rac” nomenclature) and were administered subcutaneously (s.c.) as the hydrochloride salts. Normal saline was used as the vehicle and all compounds were administered at a volume of 10 mL/kg, 30 minutes before behavioral testing.
Forced Swim Test (FST). Group size was n=10 per treatment Animals were acclimated to the testing room 30 minutes prior to behavioral testing. Mice were placed individually in a cylinder of water measuring 5 inches wide by 10 inches tall and maintained at 24-25° C. The activity of each mouse was recorded for 6 minutes using Noldus Ethovision tracking software, with periods of inactivity being automatically quantified.
Statistical Analysis. The data points shown are the mean±standard error of the mean (SEM). Analysis was performed using GraphPad Prism 6. Indicated statistical comparisons represent the results of unpaired, two-tailed t tests relative to vehicle (not corrected for multiple comparisons).

[2] = HLM stability (Low Activity, Alternative Method); format: in vitro ADME; conditions: both sexes, human, liver microsomes, pH 7.4, Condition 1 column, values marked *: Low Activity, 0.50 mg protein/mL
How it was run: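 Pooled male and female human liver microsomes (0.50 mg/mL) in 100 mM PBS pH 7.4 with 1 mM MgCl2 and 1 mM NADPH, compound 1 μM (1.0% solvent), 37° C with shaking, six time points over 60 min. Parent remaining measured by LC-MS/MS; kel, t1/2 and Clint from linear regression of ln(AUC) versus time.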

MK-801 site of NMDAR = MK-801 site of NMDAR (Rattus norvegicus, UniProt P35439); conditions: read-out: NMDAR Ki ± SEM, from Ebert et al. 1997; cited from earlier work
[3] = system: mice (conditioned place preference model of abuse liability); test: Conditioned place preference in mice; format: in vivo, C57BL/6 mice; conditions: s.c., 3 drug conditioning trials, relative to saline vehicle
Procedure: Animals. Male C57BL/6 mice, 5-8 weeks of age, (body weight 25-30 g; Envigo, Indianapolis, Ind., USA) were housed 5 per polycarbonate tub with soft bedding in a temperature- and humidity-controlled vivarium. Mice were maintained under a 12-h light/dark cycle with lights on at 06:00. Food and water were available ad libitum Animals acclimated to the vivarium 1 week prior to experimental manipulations.
Drugs and Drug Administration. Test compounds and saline vehicle were administered subcutaneously (s.c.), with doses calculated based on the HCl salt, while the positive control oxycodone was administered intraperitoneally (i.p.), with the dose calculated based on the HCl salt. Normal saline was used as the vehicle. […]
Conditioned Place Preference. Reward and/or aversion was assessed in conditioned place preference chambers (Model MED-CPP-3013; Med Associates, St. Albans, Vt.). […]
Group size was n=10 per treatment. […] Final drug preference is assessed in a 15-minute post-conditioning trial and is calculated by subtracting the time in the drug-paired compartment at baseline from the time in the drug-paired compartment post-conditioning, with positive values reflecting reward and negative values reflecting aversion.
For all trials, time spent in chambers as well as movement was quantified by infrared photobeam detectors and calculated by Med-PC IV software. […]

| SMILES | half-life at 2 μM [1] [h] | microsomal CLint at 2 μM [1] [µL/min/mg] | half-life at 1 μM [2] [h] | microsomal CLint at 1 μM [2] [µL/min/mg] | conditioned place preference (abuse liability) [3] | also measured |
| --- | --- | --- | --- | --- | --- | --- |
| CNC1(c2ccccc2)CCCCC1=O (racemic) [Compound 14rac, 2-(methylamino)-2-phenylcyclohexan-1-one hydrochloride] | 5.47 | 5 |  |  |  | immobility time in FST (mice (forced swim test); hydrochloride): reduced time immobile; also recorded: induced antidepressant-like effects |
| Cc1ccccc1[C@@]1(N)CCCCC1=O [Compound 114S, (S)-2-amino-2-(o-tolyl)cyclohexan-1-one] |  |  | > 2.42 | < 9.6 |  |  |
| CNC1(c2ccccc2Cl)CCCCC1=O (racemic) [rac-ketamine, racemic ketamine, reference compound] | 1.31 | 21 |  |  |  | immobility time in FST (mice (forced swim test)): did not have effects; Ki (MK-801 site of NMDAR): 530 ± 78 nM |
| CN[C@]1(c2ccccc2)CCCCC1=O [Compound 14S, (S)-2-(methylamino)-2-phenylcyclohexan-1-one] |  |  |  |  | dose-dependent and significant preference |  |
| Cc1ccccc1[C@]1(N)CCCCC1=O [Compound 114R, (R)-2-amino-2-(o-tolyl)cyclohexan-1-one] |  |  | > 2.42 | < 9.6 |  |  |
| CN[C@@]1(c2ccccc2)CCCCC1=O [Compound 14R, (R)-2-(methylamino)-2-phenylcyclohexan-1-one] |  |  |  |  | neither preference nor aversion |  |
